These results are taken from ChEMBL document CHEMBL3872214, “Synthesis and evaluation of in vivo antioxidant, in vitro antibacterial, MRSA and antifungal activity of novel substituted isatin N-(2,3,4,6-tetra-O-acetyl-β-d-glucopyranosyl)thiosemicarbazones” (Eur J Med Chem, 2016).

Data set [1] concerns Staphylococcus aureus. Put plainly: Antibacterial activity against methicillin-resistant Staphylococcus aureus 198-1 after 18 to 20 hrs by two-fold microbroth dilution method. The class given is functional. On the technique in general: In broth dilution the organism is exposed to a series of concentrations in liquid medium.
Data set [2] in a line: Cytotoxicity against human HepG2 cells after 3 days by MTT assay. The class given is functional, cell-based. Conditions: HepG2, 72 h. (In general: Formazan colour is commonly taken as a measure of viable cells.)
The test system of data set [3] is Staphylococcus aureus. The data set is described as follows: Antibacterial activity against methicillin-resistant Staphylococcus aureus 198-2 after 18 to 20 hrs by two-fold microbroth dilution method. The class given is functional.
The test system of data set [4] is Rattus norvegicus. The data set is described as follows: Antioxidant activity in CCL4-intoxicated Wistar albino rat assessed as liver cytosolic glutathione peroxidase activity per mg protein at 100 mg/kg, ip administered for 7 consecutive days after DL-alpha-tocopherol acetate treatment followed by CCL4 dosing measured after 24 hrs by H2O2 based spectrophotometric analysis (reference value: 0.28 +/- 0.01 U). The class given is functional.

Data set [5] has as its system Rattus norvegicus. Put plainly: Antioxidant activity in CCL4-intoxicated Wistar albino rat assessed as liver cytosolic superoxide dismutase activity per mg protein at 100 mg/kg, ip administered for 7 consecutive days after DL-alpha-tocopherol acetate treatment followed by CCL4 dosing measured after 24 hrs by xanthine based assay (reference value: 5.27 +/- 0.22 U). The class given is functional.

Data set [6] has as its system Staphylococcus aureus. The data set is described as follows: Antibacterial activity against methicillin-resistant Staphylococcus aureus 198-3 after 18 to 20 hrs by two-fold microbroth dilution method. In kind it is functional.
In data set [7] the test system is Klebsiella pneumoniae. The data set is described as follows: Antibacterial activity against Klebsiella pneumoniae ATCC 4352 after 18 to 20 hrs by two-fold microbroth dilution method. The class given is functional.
Data set [8] can be described thus: Cytotoxicity against mouse […] cells after 3 days by MTT assay. In kind it is functional, cell-based. Conditions: 72 h.
The subject of data set [9] is Bacillus subtilis. Put plainly: Antibacterial activity against Bacillus subtilis ATCC 11774 after 18 to 20 hrs by two-fold microbroth dilution method. In kind it is functional.
Data set [10] deals with Candida albicans. Put plainly: Antifungal activity against Candida albicans ATCC 7754 after 72 hrs by agar dilution method. The class given is functional. Conditions: ATCC 7754, 72 h. On the technique in general: In agar dilution, organisms are placed on agar that contains the substance at set levels.
Data set [11] has as its system Klebsiella aerogenes. Put plainly: Antibacterial activity against Enterobacter aerogenes ATCC 13048 after 18 to 20 hrs by two-fold microbroth dilution method. The class given is functional.
Data set [12] is described as follows: Cytotoxicity against human MCF7 cells after 3 days by MTT assay. In kind it is functional, cell-based. The settings on record: MCF7, 72 h.
Data set [13] is described as follows: Cytotoxicity against human Lu1 cells after 3 days by MTT assay. In kind it is functional, cell-based. The settings on record: Lu1, 72 h.
Data set [14] is described as follows: Antifungal activity against Saccharomyces cerevisiae SH20 after 72 hrs by agar dilution method. In kind it is functional.
Data set [15] in a line: Cytotoxicity against mouse NIH/3T3 cells after 3 days by MTT assay. In kind it is toxicity, NIH3T3.
In data set [16] the test system is Staphylococcus aureus. The data set is described as follows: Antibacterial activity against Staphylococcus aureus ATCC 11632 after 18 to 20 hrs by two-fold microbroth dilution method. The class given is functional.
Data set [17] is described as follows: Cytotoxicity against human KB cells after 3 days by MTT assay. Conditions: 72 h. In kind it is functional, cell-based.
Data set [18] has as its system Pseudomonas aeruginosa. Put plainly: Antibacterial activity against Pseudomonas aeruginosa […] after 18 to 20 hrs by two-fold microbroth dilution method. The class given is functional.
Data set [19] in a line: Antifungal activity against Fusarium oxysporum M42 after 72 hrs by agar dilution method. The class given is functional.
Data set [20] deals with Aspergillus niger. Put plainly: Antifungal activity against Aspergillus niger 439 after 72 hrs by agar dilution method. The class given is functional. Conditions: Aspergillus niger, 439, 72 h.
Data set [21] in a line: Cytotoxicity against human SW480 cells after 3 days by MTT assay. The settings on record: SW480, 72 h. The class given is functional, cell-based.
Data set [22] has as its system Staphylococcus epidermidis. Put plainly: Antibacterial activity against Staphylococcus epidermidis ATCC 12228 after 18 to 20 hrs by two-fold microbroth dilution method. The class given is functional.
Data set [23] concerns Escherichia coli. The data set is described as follows: Antibacterial activity against Escherichia coli ATCC 25922 after 18 to 20 hrs by two-fold microbroth dilution method. The class given is functional.
Data set [24] deals with Rattus norvegicus. Put plainly: Antioxidant activity in CCL4-intoxicated Wistar albino rat assessed as liver cytosolic catalase activity per mg protein at 100 mg/kg, ip administered for 7 consecutive days after DL-alpha-tocopherol acetate treatment followed by CCL4 dosing measured after 24 hrs by H2O2 based assay (reference value: 220.15 +/- 11.43 U). In kind it is functional.

≈ marks a conversion by molar mass, not a printed value.

With `CC(=O)OC[C@H]1O[C@@H](NC(=S)N/N=C2/C(=O)Nc3c(Br)cc(Br)cc32)[C@H](OC(C)=O)[C@@H](OC(C)=O)[C@@H]1OC(C)=O`, the minimum inhibitory concentration (MIC) in data set [1] is 0.78 µM (≈ 0.553 µg/mL); in [3] it was 0.78 µM (≈ 0.553 µg/mL); in data set [6], 0.78 µM (≈ 0.553 µg/mL); in [7] it was 50 µM (≈ 35.4 µg/mL); in [9], 1.56 µM (≈ 1.11 µg/mL); in data set [10] it was 6.25 µM (≈ 4.43 µg/mL). The minimum inhibitory concentration (MIC) is 50 µM (≈ 35.4 µg/mL) in [11]; 6.25 µM (≈ 4.43 µg/mL) in data set [14]; 1.56 µM (≈ 1.11 µg/mL) in data set [16]; 50 µM (≈ 35.4 µg/mL) in [18]; 12.5 µM (≈ 8.85 µg/mL) in [19]; 3.12 µM (≈ 2.21 µg/mL) in data set [20]. The MIC was 1.56 µM (≈ 1.11 µg/mL) in data set [22] and 50 µM (≈ 35.4 µg/mL) in data set [23]. The IC50 in data set [2] was determined as 8410 nM; in [8] it was 18400 nM; in data set [12], 2750 nM; in [13], 5530 nM; in data set [17], 12800 nM; in data set [21], 4750 nM. For the same compound, the Activity was determined as 0.31 U in [4], 10.89 U in data set [5] and 397.53 U in data set [24]. The same compound yielded a half-inhibitory concentration (IC50) at 3 days in [15] of 1530 nM.
As for `Cc1c2ccncc2c(C)c2c1[nH]c1ccccc12` [ELLIPTECINE], the half-inhibitory concentration (IC50) was determined as 1950 nM in [2]; 1270 nM in data set [8]; 530 nM in [12]; 1390 nM in data set [13]; 520 nM in data set [17]; 750 nM in data set [21]. The compound also displayed an IC50 at 3 days in data set [15] of 320 nM.
As for `C=CCN1C(=O)/C(=N/NC(=S)N[C@@H]2O[C@H](COC(C)=O)[C@@H](OC(C)=O)[C@H](OC(C)=O)[C@H]2OC(C)=O)c2ccccc21`, the minimal inhibitory concentration (MIC) stood at 200 µM (≈ 118 µg/mL) in [1]; 200 µM (≈ 118 µg/mL) in data set [3]; 200 µM (≈ 118 µg/mL) in data set [6]; 100 µM (≈ 59.1 µg/mL) in data set [7]; 200 µM (≈ 118 µg/mL) in data set [9]; 100 µM (≈ 59.1 µg/mL) in data set [10]. The minimum inhibitory concentration (MIC) in data set [11] came out at 100 µM (≈ 59.1 µg/mL); in [14] it was 100 µM (≈ 59.1 µg/mL); in [16], 200 µM (≈ 118 µg/mL); in data set [18] it was 100 µM (≈ 59.1 µg/mL); in [19] it was 200 µM (≈ 118 µg/mL); in data set [20] it was 200 µM (≈ 118 µg/mL). In addition, the minimal inhibitory concentration (MIC) in data set [22] was 200 µM (≈ 118 µg/mL); in [23], 100 µM (≈ 59.1 µg/mL). Further, the Activity in [4] worked out at 0.27 U; in data set [5], 9.91 U; in data set [24], 357.47 U.

What is called MIC is the lowest concentration found to suppress growth. By IC50 is commonly meant the concentration at which inhibition is half-maximal. Read a low IC50 as greater potency.
